The values that follow come from PMC11062922 (Nature Chemical Biology, 2023).

As a reminder, the EC50 is the concentration that produces a half-maximal response.

Like-named read-outs stand apart in the source and are kept apart here.

The target of one assay is T1, CLK4 (Homo sapiens, UniProt Q9HAZ1).
T1 construct: to maximize the representation of endogenous proteins; endogenous in cells
The assay can be described thus: Kinobeads two-dose competition binding: CLK4.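 As to CATDS: target engagement share of this target among all targets at its Kdapp concentration.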 Conditions: for CATDS: target CLK4.

The target in another assay is T2, ADCK1 (Homo sapiens, UniProt Q86TW2).
T2 construct: endogenous in cells
T2 sequence (Q86TW2 1-530): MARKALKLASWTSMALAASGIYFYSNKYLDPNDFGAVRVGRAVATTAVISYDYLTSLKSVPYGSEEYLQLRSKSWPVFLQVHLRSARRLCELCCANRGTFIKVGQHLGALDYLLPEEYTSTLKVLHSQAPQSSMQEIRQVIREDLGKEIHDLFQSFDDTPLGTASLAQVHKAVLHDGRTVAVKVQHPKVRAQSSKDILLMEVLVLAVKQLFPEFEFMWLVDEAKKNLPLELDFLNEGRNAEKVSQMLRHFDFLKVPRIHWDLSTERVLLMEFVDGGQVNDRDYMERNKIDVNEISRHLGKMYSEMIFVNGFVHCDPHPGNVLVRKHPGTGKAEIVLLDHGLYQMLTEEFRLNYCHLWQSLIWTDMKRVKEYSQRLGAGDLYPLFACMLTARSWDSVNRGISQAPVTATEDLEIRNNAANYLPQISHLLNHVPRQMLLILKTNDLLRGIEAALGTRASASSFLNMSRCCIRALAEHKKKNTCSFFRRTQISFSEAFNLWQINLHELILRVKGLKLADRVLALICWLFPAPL
Kind of assay: Kinobeads competition binding: ADCK1. The note with it: target ADCK1. The source says:
Supplement 41589_2023_1459_MOESM4_ESM.xlsx, sheet "CATDS matrix" | column: ADCK1

Another assay concerns AIFM1. Kind of assay: Kinobeads competition binding: AIFM1. The note with it: target AIFM1. The arrangement: species or system human.
In a further assay the test system is ARAF. The assay can be described thus: Kinobeads competition binding: ARAF. The arrangement: species or system human. Conditions: target ARAF.
Another assay deals with CAMK4. The assay can be described thus: Kinobeads competition binding: CAMK4.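 Also: selectivity score: engagement of this protein divided by summed engagement of all targets.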 The arrangement: species or system human. The note with it: target CAMK4.
The next assay has as its system CDC42. The assay can be described thus: Kinobeads competition binding: CDC42. Conditions: target CDC42. The arrangement: species or system human.
The next assay relates to CDK10. The assay can be described thus: Kinobeads competition binding: CDK10. The arrangement: species or system human. Conditions: target CDK10.
The target in the next assay is T3, EPHB3 (Homo sapiens, UniProt P54753).
T3 construct: endogenous in cells
T3 sequence (P54753 34-998): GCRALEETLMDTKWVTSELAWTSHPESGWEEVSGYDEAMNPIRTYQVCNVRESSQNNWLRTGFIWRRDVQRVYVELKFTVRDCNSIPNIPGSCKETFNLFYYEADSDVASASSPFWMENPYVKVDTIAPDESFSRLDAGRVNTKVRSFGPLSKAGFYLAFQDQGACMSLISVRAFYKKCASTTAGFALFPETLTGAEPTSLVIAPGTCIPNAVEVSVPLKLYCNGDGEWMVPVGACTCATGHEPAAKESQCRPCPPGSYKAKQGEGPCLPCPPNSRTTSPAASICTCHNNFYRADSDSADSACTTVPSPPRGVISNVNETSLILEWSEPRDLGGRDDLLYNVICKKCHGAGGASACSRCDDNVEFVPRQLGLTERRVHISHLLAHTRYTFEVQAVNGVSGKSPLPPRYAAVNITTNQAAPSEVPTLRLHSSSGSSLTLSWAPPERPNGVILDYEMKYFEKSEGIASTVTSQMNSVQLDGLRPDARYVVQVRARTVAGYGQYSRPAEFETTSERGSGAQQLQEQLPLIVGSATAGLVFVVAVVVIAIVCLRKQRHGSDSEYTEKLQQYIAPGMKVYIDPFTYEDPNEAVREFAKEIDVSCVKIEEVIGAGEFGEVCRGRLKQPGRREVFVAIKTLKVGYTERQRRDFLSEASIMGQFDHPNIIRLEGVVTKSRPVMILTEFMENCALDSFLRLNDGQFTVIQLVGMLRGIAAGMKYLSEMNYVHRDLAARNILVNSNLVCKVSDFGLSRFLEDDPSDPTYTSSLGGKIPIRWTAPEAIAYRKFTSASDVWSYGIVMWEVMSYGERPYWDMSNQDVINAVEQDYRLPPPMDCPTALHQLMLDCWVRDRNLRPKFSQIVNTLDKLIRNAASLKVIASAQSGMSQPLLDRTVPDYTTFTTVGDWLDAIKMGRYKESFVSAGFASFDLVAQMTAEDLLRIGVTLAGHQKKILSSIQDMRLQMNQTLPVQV
The assay can be described thus: Kinobeads competition binding: EPHB3. Conditions: target EPHB3. The text has this:
Supplement 41589_2023_1459_MOESM4_ESM.xlsx, sheet "CATDS matrix" | column: EPHB3

Another assay relates to LIMK2. Kind of assay: Kinobeads competition binding: LIMK2. The arrangement: species or system human. The note with it: target LIMK2.
The subject of a further assay is MAP3K11. Kind of assay: Kinobeads competition binding: MAP3K11. The arrangement: species or system human. The note with it: target MAP3K11.
A further assay has as its system MAPK11. Kind of assay: Kinobeads competition binding: MAPK11. The arrangement: species or system human. Conditions: target MAPK11.
The next assay relates to MAPK3. Kind of assay: Kinobeads competition binding: MAPK3. Further details: species or system human. The note with it: target MAPK3.
The test system of a further assay is MERTK. The assay can be described thus: Kinobeads competition binding: MERTK. Further details: species or system human. The note with it: target MERTK.
For the next assay, the system named is NEK1. The assay can be described thus: Kinobeads competition binding: NEK1. The arrangement: species or system human. Conditions: target NEK1.
The target of the next assay is T4, PAK6 (Homo sapiens, UniProt Q9NQU5).
T4 construct: a mixture of lysates from five cancer cell lines; endogenous in cells
The assay can be described thus: Kinobeads competition binding: PAK6. The note with it: target PAK6.

In a further assay the test system is PGK1. The assay can be described thus: Kinobeads competition binding: PGK1. Conditions: target PGK1. Further details: species or system human.
A further assay relates to PI4KA. Kind of assay: Kinobeads competition binding: PI4KA. Further details: species or system human. The note with it: target PI4KA.
The target of a further assay is T5, PIK3CD (Homo sapiens, UniProt O00329).
T5 construct: a mixture of lysates from five cancer cell lines; endogenous in cells
The assay can be described thus: Kinobeads competition binding: PIK3CD. The note with it: target PIK3CD.

Another assay addresses PKN3 (Homo sapiens, UniProt Q6P5Z2). Kind of assay: Kinobeads full dose-response competition binding: PKN3.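 As to all read-outs here: inhibitor pre-incubated 45 min at 4 °C in cell lysate (5 mg/ml protein), then competed against Kinobeads ε pulldown for 30 min, bound kinase quantified by nano LC–MS/MS.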 The arrangement: endogenous in cells. The note with it: for Relative Intensity 0.3nM: 0.3nM compound; for Relative Intensity 0.3nM / Relative Intensity 1nM / Relative Intensity 3nM / Relative Intensity 10nM / Relative Intensity 30nM / Relative Intensity 100nM / Relative Intensity 300nM / Relative Intensity 1000nM: DMSO = 1; for Relative Intensity 1nM: 1nM compound; for Relative Intensity 3nM: 3nM compound; for Relative Intensity 10nM: 10nM compound; for Relative Intensity 30nM: 30nM compound; for Relative Intensity 100nM: 100nM compound; for Relative Intensity 300nM: 300nM compound; for Relative Intensity 1000nM: 1000nM compound; for EC50: eight-dose curve fit.

[1] abbreviates: Gene Name PKN3, EC50 with Correction, doses in nM, read-out: apparent Kd.
[2] abbreviates: Kinobeads full dose-response, read-out: Kdapp PKN3.

T1 sequence (Q9HAZ1 whole entry): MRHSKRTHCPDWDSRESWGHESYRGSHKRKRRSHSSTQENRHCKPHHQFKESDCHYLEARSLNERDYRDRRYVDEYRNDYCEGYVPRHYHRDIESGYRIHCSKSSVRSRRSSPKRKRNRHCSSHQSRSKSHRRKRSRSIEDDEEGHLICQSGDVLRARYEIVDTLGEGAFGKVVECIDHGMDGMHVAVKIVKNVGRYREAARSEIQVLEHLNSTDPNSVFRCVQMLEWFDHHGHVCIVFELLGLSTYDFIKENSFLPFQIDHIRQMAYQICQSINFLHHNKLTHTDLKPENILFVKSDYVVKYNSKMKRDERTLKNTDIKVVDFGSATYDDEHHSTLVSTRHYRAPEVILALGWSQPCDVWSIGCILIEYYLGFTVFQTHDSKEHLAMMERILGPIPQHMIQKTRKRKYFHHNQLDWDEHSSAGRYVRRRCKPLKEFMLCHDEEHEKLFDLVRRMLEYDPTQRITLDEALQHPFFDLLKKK
T4 sequence (Q9NQU5 whole entry): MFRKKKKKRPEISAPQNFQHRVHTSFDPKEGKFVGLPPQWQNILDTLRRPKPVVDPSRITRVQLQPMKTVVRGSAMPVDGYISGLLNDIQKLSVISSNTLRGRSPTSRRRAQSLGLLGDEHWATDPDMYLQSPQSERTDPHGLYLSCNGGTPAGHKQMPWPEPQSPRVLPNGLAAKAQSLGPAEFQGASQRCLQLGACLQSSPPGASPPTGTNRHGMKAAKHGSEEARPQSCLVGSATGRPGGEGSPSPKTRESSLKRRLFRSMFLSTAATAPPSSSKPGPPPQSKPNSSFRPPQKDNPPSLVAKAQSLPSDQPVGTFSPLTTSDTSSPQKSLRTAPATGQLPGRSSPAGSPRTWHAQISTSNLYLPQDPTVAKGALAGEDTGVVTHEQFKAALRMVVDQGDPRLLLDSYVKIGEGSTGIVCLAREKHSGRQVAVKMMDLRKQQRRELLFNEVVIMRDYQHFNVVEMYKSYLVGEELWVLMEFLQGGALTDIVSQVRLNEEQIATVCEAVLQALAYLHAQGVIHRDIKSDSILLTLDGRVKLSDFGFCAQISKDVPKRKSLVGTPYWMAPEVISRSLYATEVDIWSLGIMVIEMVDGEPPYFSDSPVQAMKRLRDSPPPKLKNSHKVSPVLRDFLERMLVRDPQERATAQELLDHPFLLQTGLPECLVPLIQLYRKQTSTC
PKN3, sequence (Q6P5Z2 whole entry): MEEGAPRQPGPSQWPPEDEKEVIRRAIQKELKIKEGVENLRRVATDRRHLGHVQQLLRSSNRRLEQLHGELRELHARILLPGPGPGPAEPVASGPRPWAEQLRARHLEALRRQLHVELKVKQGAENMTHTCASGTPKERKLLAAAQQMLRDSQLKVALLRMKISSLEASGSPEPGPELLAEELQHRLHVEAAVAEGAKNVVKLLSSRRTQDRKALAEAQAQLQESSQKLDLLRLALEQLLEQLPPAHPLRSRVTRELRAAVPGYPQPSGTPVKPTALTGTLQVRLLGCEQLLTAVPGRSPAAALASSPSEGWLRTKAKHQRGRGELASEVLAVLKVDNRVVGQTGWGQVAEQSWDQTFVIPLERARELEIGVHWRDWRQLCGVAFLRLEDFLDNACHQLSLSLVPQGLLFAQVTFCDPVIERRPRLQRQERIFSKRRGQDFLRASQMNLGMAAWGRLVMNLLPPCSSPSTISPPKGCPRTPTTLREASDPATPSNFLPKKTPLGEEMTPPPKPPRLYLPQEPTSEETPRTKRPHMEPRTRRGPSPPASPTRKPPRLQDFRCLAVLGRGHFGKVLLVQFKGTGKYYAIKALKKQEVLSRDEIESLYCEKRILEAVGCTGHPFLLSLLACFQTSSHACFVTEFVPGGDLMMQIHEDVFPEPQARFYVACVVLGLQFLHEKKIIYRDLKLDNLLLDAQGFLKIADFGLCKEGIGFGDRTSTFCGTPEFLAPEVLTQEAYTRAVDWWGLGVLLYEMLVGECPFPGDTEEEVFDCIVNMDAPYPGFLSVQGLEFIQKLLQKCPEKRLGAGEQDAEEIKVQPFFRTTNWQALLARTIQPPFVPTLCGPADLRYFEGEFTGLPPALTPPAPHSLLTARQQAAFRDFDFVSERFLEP
T5 sequence (O00329 whole entry): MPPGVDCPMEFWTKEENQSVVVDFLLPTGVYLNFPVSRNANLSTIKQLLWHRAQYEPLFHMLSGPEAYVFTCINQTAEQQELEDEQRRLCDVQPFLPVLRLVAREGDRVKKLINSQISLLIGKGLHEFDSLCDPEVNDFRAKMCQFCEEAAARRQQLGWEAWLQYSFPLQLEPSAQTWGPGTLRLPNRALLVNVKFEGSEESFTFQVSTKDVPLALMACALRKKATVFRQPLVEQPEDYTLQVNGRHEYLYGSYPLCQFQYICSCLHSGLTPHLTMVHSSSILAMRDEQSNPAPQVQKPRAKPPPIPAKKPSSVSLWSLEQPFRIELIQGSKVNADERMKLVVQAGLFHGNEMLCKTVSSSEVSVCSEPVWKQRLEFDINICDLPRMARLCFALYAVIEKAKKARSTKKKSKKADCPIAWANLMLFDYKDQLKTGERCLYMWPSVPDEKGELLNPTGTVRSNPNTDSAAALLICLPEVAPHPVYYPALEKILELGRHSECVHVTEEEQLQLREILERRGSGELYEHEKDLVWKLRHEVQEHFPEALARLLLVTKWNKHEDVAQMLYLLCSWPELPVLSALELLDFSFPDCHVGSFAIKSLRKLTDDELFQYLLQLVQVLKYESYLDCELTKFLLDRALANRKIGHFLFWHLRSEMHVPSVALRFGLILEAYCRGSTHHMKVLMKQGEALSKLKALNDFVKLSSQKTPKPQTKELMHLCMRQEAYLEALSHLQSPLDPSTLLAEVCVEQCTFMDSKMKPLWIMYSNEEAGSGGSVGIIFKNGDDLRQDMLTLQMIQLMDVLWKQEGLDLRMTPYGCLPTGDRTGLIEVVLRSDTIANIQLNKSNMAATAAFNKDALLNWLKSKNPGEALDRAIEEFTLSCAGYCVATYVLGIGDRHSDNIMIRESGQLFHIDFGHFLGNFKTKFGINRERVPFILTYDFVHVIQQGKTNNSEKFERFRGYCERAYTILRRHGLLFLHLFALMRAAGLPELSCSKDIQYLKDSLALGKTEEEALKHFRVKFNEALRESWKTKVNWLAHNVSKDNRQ
T5 sequence (P27986 whole entry partner): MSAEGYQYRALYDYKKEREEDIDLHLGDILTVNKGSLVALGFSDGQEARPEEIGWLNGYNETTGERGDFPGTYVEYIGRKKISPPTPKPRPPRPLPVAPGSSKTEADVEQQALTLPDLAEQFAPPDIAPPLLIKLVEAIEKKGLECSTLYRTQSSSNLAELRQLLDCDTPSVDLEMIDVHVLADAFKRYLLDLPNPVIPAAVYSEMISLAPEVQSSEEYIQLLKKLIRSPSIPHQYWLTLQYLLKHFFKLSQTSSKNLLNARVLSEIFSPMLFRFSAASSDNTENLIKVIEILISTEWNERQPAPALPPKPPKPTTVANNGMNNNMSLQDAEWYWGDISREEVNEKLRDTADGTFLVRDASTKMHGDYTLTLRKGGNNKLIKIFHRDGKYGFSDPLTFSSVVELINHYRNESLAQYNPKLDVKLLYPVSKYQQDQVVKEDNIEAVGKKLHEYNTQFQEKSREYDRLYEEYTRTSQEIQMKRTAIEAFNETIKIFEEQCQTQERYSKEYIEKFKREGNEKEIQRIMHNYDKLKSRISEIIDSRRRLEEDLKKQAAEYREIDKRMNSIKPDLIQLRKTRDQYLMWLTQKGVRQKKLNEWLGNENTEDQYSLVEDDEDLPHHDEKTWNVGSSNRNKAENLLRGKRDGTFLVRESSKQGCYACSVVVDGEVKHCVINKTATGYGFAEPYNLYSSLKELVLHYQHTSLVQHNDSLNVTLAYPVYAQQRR

`Nc1ncnc2[nH]c(-c3ccccc3)nc12` [AH5015_KCGS]: the potency estimated from few doses on CLK4 (Kinobeads two-dose, Drugmatrix - all 2, read-out: apparent Kd CLK4) is more than 1000 nM. The CATDS on CLK4, on ADCK1, with AIFM1, in the assay on ARAF, with CAMK4 and in the assay on CDC42 was 0 in each case. The CATDS in the assay with CDK10, on EPHB3, in the assay with LIMK2, with MAP3K11, with MAPK11 and in the assay on MAPK3 was 0 in each case. The CATDS in the assay on MERTK amounted to 0; in the assay on NEK1, 0; at PAK6, 0; in the assay on PGK1, 0; in the assay on PI4KA it was 0; at PIK3CD it was 0.05532.
With `CCn1c(-c2nonc2N)nc2c(C#CC(C)(C)O)nc(OCCNC)cc21` [GSK949675A], on PKN3 (Gene Name PKN3), the “Relative Intensity 0.3nM” value was determined as 1.302, the “Relative Intensity 1nM” value turned out to be 1.271, the “Relative Intensity 3nM” value is listed as 1.02 and the “Relative Intensity 10nM” value stood at 1.139. In addition, at PKN3 (Gene Name PKN3), the “Relative Intensity 30nM” value was determined as 0.7655, the “Relative Intensity 100nM” value was found to be 0.7191, the “Relative Intensity 300nM” value is 0 and the “Relative Intensity 1000nM” value is on record as 0. At PKN3 (setting [1]), the Kd amounted to 89.8 nM. This compound also gave an EC50 on PKN3 (Gene Name PKN3, doses in nM) of 89.8 nM. For the same compound, on PKN3 (setting [2]), the Kd was determined as 90 nM.
Regarding `C[C@]12O[C@H](C[C@]1(O)CO)n1c3ccccc3c3c4c(c5c6ccccc6n2c5c31)CNC4=O` [Lestaurtinib], the potency estimated from few doses at CLK4 (read-out: Lestaurtinib Drugmatrix value, Gene Name CLK4) was 50.2 nM.
As for `NCc1ccc(-c2nc(-c3ccncc3)c(-c3ccc(Cl)c(O)c3)[nH]2)cc1` [SB-476429-A], on PKN3 (Gene Name PKN3), the “Relative Intensity 0.3nM” value came to 1.299, the “Relative Intensity 1nM” value turned out to be 1.281, the “Relative Intensity 3nM” value turned out to be 1.311 and the “Relative Intensity 10nM” value is given as 1.076. In addition, at PKN3 (Gene Name PKN3), the “Relative Intensity 30nM” value is given as 0.6326, the “Relative Intensity 100nM” value is recorded as 0.3718, the “Relative Intensity 300nM” value came to 0 and the “Relative Intensity 1000nM” value turned out to be 0. Further, the Kd on PKN3 (setting [1]) turned out to be 38.4 nM. In addition, at PKN3 (Gene Name PKN3, doses in nM), the concentration for a half-maximal effect (EC50) turned out to be 38.4 nM. Moreover, the Kd on PKN3 (setting [2]) stood at 38 nM.
With `CCc1cc2c(cc1N1CCC(N3CCOCC3)CC1)C(C)(C)c1[nH]c3cc(C#N)ccc3c1C2=O` [Alectinib], the CATDS at CLK4, on ADCK1, in the assay on AIFM1, in the assay with ARAF, in the assay with CAMK4 and with CDC42 was 0 each time. For the same compound, the CATDS with CDK10, on EPHB3, with LIMK2, with MAP3K11, in the assay on MAPK11 and in the assay on MAPK3 was 0 in each case. For the same compound, the CATDS in the assay with MERTK, with NEK1, on PAK6, in the assay on PGK1, with PI4KA and on PIK3CD was 0 throughout.
On to `N#CC1(c2ccc(NC(=O)c3cccnc3NCc3ccncc3)cc2)CCCC1` [Apatinib], for which the CATDS at CLK4, at ADCK1, with AIFM1, in the assay on ARAF, in the assay on CAMK4 and in the assay with CDC42 was 0 in each case. Further, the CATDS in the assay on CDK10, at EPHB3, with LIMK2, in the assay on MAP3K11, in the assay on MAPK11 and in the assay with MAPK3 was 0 throughout. The CATDS with MERTK, in the assay on NEK1, at PAK6, in the assay with PGK1, in the assay with PI4KA and on PIK3CD was 0 in each case.
For the compound `CCn1c(-c2nonc2N)nc2c(C#CC(C)(C)O)nc(OCCN)cc21` [GSK902056A], at PKN3 (Gene Name PKN3), the “Relative Intensity 0.3nM” value is given as 1.0043, the “Relative Intensity 1nM” value came out at 0.9527, the “Relative Intensity 3nM” value worked out at 0.8181 and the “Relative Intensity 10nM” value is 0.5011. Also, on PKN3 (Gene Name PKN3), the “Relative Intensity 30nM” value is recorded as 0.201, the “Relative Intensity 100nM” value is on record as 0, the “Relative Intensity 300nM” value stood at 0 and the “Relative Intensity 1000nM” value is on record as 0. Moreover, the Kd at PKN3 (setting [1]) was found to be 10.2 nM. This compound had a 50% effective concentration (EC50) at PKN3 (Gene Name PKN3, doses in nM) of 10.2 nM. At PKN3 (setting [2]), the Kd stood at 10 nM.
On to `CCN1CCN(Cc2ccc(Nc3ncc(F)c(-c4cc(F)c5nc(C)n(C(C)C)c5c4)n3)nc2)CC1` [Abemaciclib], for which the CATDS at ADCK1 stood at 0.02486; in the assay on AIFM1, 0; in the assay with ARAF, 0; with CAMK4, 0; in the assay on CDC42, 0; in the assay with CDK10, 0. For the same compound, the CATDS on EPHB3, in the assay on LIMK2, in the assay on MAP3K11, with MAPK11, with MAPK3 and in the assay with MERTK was 0 throughout. The CATDS in the assay on NEK1, at PAK6, in the assay on PGK1, in the assay with PI4KA and on PIK3CD was 0 each time.
For the compound `CN(C)C/C=C/C(=O)Nc1cc2c(Nc3ccc(F)c(Cl)c3)ncnc2cc1O[C@H]1CCOC1` [Afatinib], the CATDS on CLK4, at ADCK1, with AIFM1, in the assay on ARAF, in the assay on CDC42 and in the assay with CDK10 was 0 in each case. Further, the CATDS on EPHB3, with PGK1 and with PI4KA was 0 in each case.
